Measurements reported in patent publication US9409905B2, “Antibacterial compounds and methods for use” (PTC THERAPEUTICS, INC., priority 2011, dated 2016).
Values after ≈ are worked out from the molar mass of the structure shown.

Experiments:
[1] = system: Escherichia coli (E. coli) BAS849; experiment: Antibacterial activity, microbroth dilution MIC (Table 1); assay type: cell-based; conditions: microbroth dilution, super sensitive Gram-negative E. coli BAS849, read-out: MIC, BAS849
How it was run: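 Read-out: visual absence of growth. The lowest concentration meeting this gives the MIC, expressed in μg/mL, with microbroth dilution as the method.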

[2] = system: Staphylococcus aureus (S. aureus) 29213; experiment: as above; assay type: cell-based; conditions: microbroth dilution, Gram-positive S. aureus 29213, read-out: MIC, 29213
How it was run: (§1)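 MIC (μg/mL) is taken as the lowest concentration with no macroscopically visible growth. Strains tested by microbroth dilution: Gram-positive S. aureus 29213, control Gram-negative E. coli 25922, and super-sensitive E. coli BAS849.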

E. coli 25922 = experiment: as above; assay type: cell-based, Escherichia coli; conditions: Escherichia coli; microbroth dilution; control Gram-negative E. coli 25922 strain; read-out: MIC, 25922
How it was run: as §1

E. coli LZ3111 = experiment: Antibacterial activity, MIC, quinolone resistant strain (Table 2); assay type: cell-based; conditions: Escherichia coli, LZ3111, read-out: MIC LZ3111
How it was run: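 Broth microdilution. Read-out: MIC in μg/mL, taken as lowest concentration with no macroscopically visible growth.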

[3] = system: Acinetobacter baumannii (A. baumannii) BAA747; experiment: Antibacterial activity, MIC (Table 4); assay type: cell-based; conditions: A. baumannii BAA747, read-out: MIC, BAA747
How it was run: (§2)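 Broth microdilution; MIC (μg/mL) = lowest concentration with no macroscopically visible growth. Resistant strains: multi-drug resistant clinical isolates.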

[4] = system: Klebsiella pneumoniae (K. pneumoniae) 35657; experiment: Antibacterial activity, MIC (Table 4); assay type: cell-based; conditions: K. pneumoniae 35657, read-out: MIC, 35657
How it was run: as §2

A. baumannii MXX2240 = experiment: Antibacterial activity, MIC, resistant strain (Table 4); assay type: cell-based; conditions: Acinetobacter baumannii, MXX2240; resistant A. baumannii MMX2240, multi-drug resistant clinical isolate; read-out: MIC, MMX2240
How it was run: as §2

K. pneumoniae MXX1232 = experiment: as above; assay type: cell-based; conditions: Klebsiella pneumoniae, MXX1232; resistant K. pneumoniae MMX1232, multi-drug resistant clinical isolate; read-out: MIC, MMX1232
How it was run: as §2

[5] = system: Pseudomonas aeruginosa (P. aeruginosa) 27853; experiment: Antibacterial activity, MIC (Table 5); assay type: cell-based; conditions: P. aeruginosa 27853, read-out: MIC, 27853
How it was run: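 Microbroth dilution; MIC (μg/mL) = lowest concentration with no macroscopically visible growth.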

| SMILES | MIC [1] [µg/mL] | MIC [2] [µg/mL] | MIC (E. coli 25922) [µg/mL] | MIC (E. coli LZ3111) [µg/mL] | MIC [3] [µg/mL] | MIC [4] [µg/mL] | MIC (A. baumannii MXX2240) [µg/mL] | MIC (K. pneumoniae MXX1232) [µg/mL] | MIC [5] [µg/mL] |
| --- | --- | --- | --- | --- | --- | --- | --- | --- | --- |
| CCc1c(-c2ccc3c(ccn3-c3ccc(F)cc3)c2)[nH]c(=O)c(C(=O)O)c1O [Cpd 438, 5-ethyl-6-(1-(4-fluorophenyl)-1H-indol-5-yl)-4-hydroxy-2-oxo-1,2-dihydropyridine-3-carboxylic acid] | < 1 | < 1 | 12.5 to 150 (≈ 31.9 to 382 µM) | 12.5 to 150 (≈ 31.9 to 382 µM) | 12.5 to 150 (≈ 31.9 to 382 µM) | 12.5 to 150 (≈ 31.9 to 382 µM) | 12.5 to 150 (≈ 31.9 to 382 µM) | 12.5 to 150 (≈ 31.9 to 382 µM) | 12.5 to 150 (≈ 31.9 to 382 µM) |
| CCc1c(-c2ccc3c(ccn3-c3cccc(N4CCCC4)c3)c2)[nH]c(=O)c(C(=O)O)c1O [Cpd 439, 5-ethyl-4-hydroxy-2-oxo-6-(1-(3-(pyrrolidin-1-yl)phenyl)-1H-indol-5-yl)-1,2-dihydropyridine-3-carboxylic acid] | 1 to 3.5 (≈ 2.25 to 7.89 µM) | 3.5 to 12.5 (≈ 7.89 to 28.2 µM) | 12.5 to 150 (≈ 28.2 to 338 µM) | 12.5 to 150 (≈ 28.2 to 338 µM) | 12.5 to 150 (≈ 28.2 to 338 µM) | 12.5 to 150 (≈ 28.2 to 338 µM) | 12.5 to 150 (≈ 28.2 to 338 µM) | 12.5 to 150 (≈ 28.2 to 338 µM) | 12.5 to 150 (≈ 28.2 to 338 µM) |
| CCc1c(-c2ccc3c(ccn3-c3ccc(N4CCCC4)cc3)c2)[nH]c(=O)c(C(=O)O)c1O [Cpd 440, 5-ethyl-4-hydroxy-2-oxo-6-(1-(4-(pyrrolidin-1-yl)phenyl)-1H-indol-5-yl)-1,2-dihydropyridine-3-carboxylic acid] | 12.5 to 150 (≈ 28.2 to 338 µM) | 12.5 to 150 (≈ 28.2 to 338 µM) | 12.5 to 150 (≈ 28.2 to 338 µM) | 12.5 to 150 (≈ 28.2 to 338 µM) | 12.5 to 150 (≈ 28.2 to 338 µM) | 12.5 to 150 (≈ 28.2 to 338 µM) | 12.5 to 150 (≈ 28.2 to 338 µM) | 12.5 to 150 (≈ 28.2 to 338 µM) | 12.5 to 150 (≈ 28.2 to 338 µM) |
| CCc1c(-c2ccc3cc(CN(C)C)[nH]c3c2)[nH]c(=O)c(C(=O)O)c1O.Cl [Cpd 441, 6-(2-((dimethylamino)methyl)-1H-indol-6-yl)-5-ethyl-4-hydroxy-2-oxo-1,2-dihydropyridine-3-carboxylic acid hydrochloride] | < 1 | 1 to 3.5 | < 1 | 12.5 to 150 | 1 to 3.5 | < 1 | 3.5 to 12.5 | 12.5 to 150 | 12.5 to 150 |
| CCNCc1cc2ccc(-c3[nH]c(=O)c(C(=O)O)c(O)c3CC)cc2[nH]1.Cl [Cpd 442, 5-ethyl-6-(2-((ethylamino)methyl)-1H-indol-6-yl)-4-hydroxy-2-oxo-1,2-dihydropyridine-3-carboxylic acid hydrochloride] | 1 to 3.5 | 12.5 to 150 | 3.5 to 12.5 | 12.5 to 150 | 12.5 to 150 | 3.5 to 12.5 | 12.5 to 150 | 12.5 to 150 | 12.5 to 150 |
| CCc1c(-c2ccc3cc(CNC(C)CC)[nH]c3c2)[nH]c(=O)c(C(=O)O)c1O.Cl (stereo not drawn) [Cpd 443, 6-(2-((sec-butylamino)methyl)-1H-indol-6-yl)-5-ethyl-4-hydroxy-2-oxo-1,2-dihydropyridine-3-carboxylic acid hydrochloride] | 1 to 3.5 | 3.5 to 12.5 | 3.5 to 12.5 | 3.5 to 12.5 | 12.5 to 150 | 3.5 to 12.5 | 3.5 to 12.5 | 12.5 to 150 | 12.5 to 150 |
| CCNCc1cc2ccc(-c3[nH]c(=O)c(C(=O)O)c(O)c3C)cc2[nH]1.Cl [Cpd 444, 6-(2-((ethylamino)methyl)-1H-indol-6-yl)-4-hydroxy-5-methyl-2-oxo-1,2-dihydropyridine-3-carboxylic acid hydrochloride] | 12.5 to 150 | 12.5 to 150 | 12.5 to 150 | 12.5 to 150 | 12.5 to 150 | 12.5 to 150 | 12.5 to 150 | 12.5 to 150 | 12.5 to 150 |
| CCc1c(-c2ccc3c4c([nH]c3c2)CNCC4)[nH]c(=O)c(C(=O)O)c1O [Cpd 445, 5-ethyl-4-hydroxy-2-oxo-6-(2,3,4,9-tetrahydro-1H-pyrido[3,4-b]indol-7-yl)-1,2-dihydropyridine-3-carboxylic acid] | 3.5 to 12.5 (≈ 9.9 to 35.4 µM) | 12.5 to 150 (≈ 35.4 to 424 µM) | 12.5 to 150 (≈ 35.4 to 424 µM) | 12.5 to 150 (≈ 35.4 to 424 µM) | 12.5 to 150 (≈ 35.4 to 424 µM) | 3.5 to 12.5 (≈ 9.9 to 35.4 µM) | 12.5 to 150 (≈ 35.4 to 424 µM) | 12.5 to 150 (≈ 35.4 to 424 µM) | 12.5 to 150 (≈ 35.4 to 424 µM) |
